Assay results: PubChem BioAssay AID1963860 (Molecular Pharmacology Branch, DTP, NCI, 2024)

Test system: CN0375-F725-PDC KRAS spheroid viability
Test: Anticancer human tumor CN0375-F725-PDC patient-derived colon carcinoma cell line growth inhibition [KRAS2]
Conditions: spheroids with HUVEC and MSC; for IC50: curve of first compound; for viability, T/C: stronger effect = lower value
How it was run: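 Combination screen of spheroid viability in tumor-cell co-cultures with endothelial (HUVEC) and mesenchymal stem cell stroma. Each agent was tested in half-log dilutions, topping at clinical Cmax or at 10 microM without a known Cmax.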

[1] = second compound 0.1 µM, first compound 0.000316 µM
[2] = second compound 0.1 µM, first compound 0.001 µM
[3] = second compound 0.1 µM, first compound 0.00316 µM
[4] = second compound 0.1 µM, first compound 0.01 µM
[5] = second compound 0.1 µM, first compound 0.0316 µM
[6] = second compound 0.1 µM, first compound 0.1 µM
[7] = second compound 0.316 µM, first compound 0.000316 µM
[8] = second compound 0.316 µM, first compound 0.001 µM
[9] = second compound 0.316 µM, first compound 0.00316 µM
[10] = second compound 0.316 µM, first compound 0.01 µM
[11] = second compound 0.316 µM, first compound 0.0316 µM
[12] = second compound 0.316 µM, first compound 0.1 µM
[13] = second compound 1 µM, first compound 0.000316 µM
[14] = second compound 1 µM, first compound 0.001 µM
[15] = second compound 1 µM, first compound 0.00316 µM
[16] = second compound 1 µM, first compound 0.01 µM
[17] = second compound 1 µM, first compound 0.0316 µM
[18] = second compound 1 µM, first compound 0.1 µM
[19] = second compound 3.16 µM, first compound 0.000316 µM
[20] = second compound 3.16 µM, first compound 0.001 µM
[21] = second compound 3.16 µM, first compound 0.00316 µM
[22] = second compound 3.16 µM, first compound 0.01 µM
[23] = second compound 3.16 µM, first compound 0.0316 µM
[24] = second compound 3.16 µM, first compound 0.1 µM
[25] = second compound 10 µM, first compound 0.000316 µM
[26] = second compound 10 µM, first compound 0.001 µM
[27] = second compound 10 µM, first compound 0.00316 µM
[28] = second compound 10 µM, first compound 0.01 µM
[29] = second compound 10 µM, first compound 0.0316 µM
[30] = second compound 10 µM, first compound 0.1 µM
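Further: spheroids exposed to agents for 7 days.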

| Structure (SMILES) | IC50 (second compound 0.1 µM) | IC50 (second compound 0.316 µM) | IC50 (second compound 1 µM) | IC50 (second compound 3.16 µM) | IC50 (second compound 10 µM) | viability, T/C [1] | viability, T/C [2] | viability, T/C [3] | viability, T/C [4] | viability, T/C [5] | viability, T/C [6] | viability, T/C [7] | viability, T/C [11] | viability, T/C [12] | viability, T/C [17] | viability, T/C [18] | viability, T/C [23] | viability, T/C [24] | viability, T/C [29] | viability, T/C [30] | also measured |
| --- | --- | --- | --- | --- | --- | --- | --- | --- | --- | --- | --- | --- | --- | --- | --- | --- | --- | --- | --- | --- | --- |
| CC(C)n1nc(-c2ccc3oc(N)nc3c2)c2c(N)ncnc21 + CC1OCC2(CCN(c3cnc(Sc4ccnc(N)c4Cl)c(N)n3)CC2)C1N | 58.1 nM | 42.2 nM | 33.1 nM | 26.3 nM | 7.76 nM | 91.6% | 89.6% | 73.9% | 68.6% | 54.2% | 45.7% | 84.5% | 54.6% | 43.2% | 51% | 40.5% | 46.9% | 37.9% | 39.9% | 33.8% | viability, T/C [8]: 84.9%; viability, T/C [9]: 73.1%; viability, T/C [10]: 60.7%; viability, T/C [13]: 82.5%; viability, T/C [14]: 81.7%; viability, T/C [15]: 68.6%; viability, T/C [16]: 61.5%; viability, T/C [19]: 74.6%; viability, T/C [20]: 74.3%; viability, T/C [21]: 67.5%; viability, T/C [22]: 57.3%; viability, T/C [25]: 63.8%; viability, T/C [26]: 65%; viability, T/C [27]: 56.4%; viability, T/C [28]: 47.5% |
| CC1(C)CCC(CN2CCN(c3ccc(C(=O)NS(=O)(=O)c4ccc(NCC5CCOCC5)c([N+](=O)[O-])c4)c(Oc4cnc5[nH]ccc5c4)c3)CC2)=C(c2ccc(Cl)cc2)C1 + CC1OCC2(CCN(c3cnc(Sc4ccnc(N)c4Cl)c(N)n3)CC2)C1N | 3490 nM | 2760 nM | 2600 nM | 2130 nM | 1610 nM |  |  |  |  | 103% | 100% |  | 95.4% | 100% | 90.7% | 91.5% | 84.4% | 87.1% | 67.7% | 73.2% | viability, T/C (second compound 0.1 µM, first compound 0.316 µM): 104%; viability, T/C (second compound 0.1 µM, first compound 1 µM): 103%; viability, T/C (second compound 0.1 µM, first compound 3.16 µM): 51.6%; viability, T/C (second compound 0.1 µM, first compound 10 µM): 31.6%; viability, T/C (second compound 0.316 µM, first compound 0.316 µM): 94.6%; viability, T/C (second compound 0.316 µM, first compound 1 µM): 95.8%; viability, T/C (second compound 0.316 µM, first compound 3.16 µM): 43.8%; viability, T/C (second compound 0.316 µM, first compound 10 µM): 25.1%; viability, T/C (second compound 1 µM, first compound 0.316 µM): 89.9%; viability, T/C (second compound 1 µM, first compound 1 µM): 86.3%; viability, T/C (second compound 1 µM, first compound 3.16 µM): 42.5%; viability, T/C (second compound 1 µM, first compound 10 µM): 22.2%; viability, T/C (second compound 3.16 µM, first compound 0.316 µM): 87.4%; viability, T/C (second compound 3.16 µM, first compound 1 µM): 82.8%; viability, T/C (second compound 3.16 µM, first compound 3.16 µM): 32.9%; viability, T/C (second compound 3.16 µM, first compound 10 µM): 13.9%; viability, T/C (second compound 10 µM, first compound 0.316 µM): 77.2%; viability, T/C (second compound 10 µM, first compound 1 µM): 69.6%; viability, T/C (second compound 10 µM, first compound 3.16 µM): 22%; viability, T/C (second compound 10 µM, first compound 10 µM): 8.8% |
| Cn1ncnc1[C@H]1c2n[nH]c(=O)c3cc(F)cc(c23)N[C@@H]1c1ccc(F)cc1 + CC1OCC2(CCN(c3cnc(Sc4ccnc(N)c4Cl)c(N)n3)CC2)C1N | > 100 nM | > 100 nM | > 100 nM | > 100 nM | > 100 nM | 103% | 95.2% | 93.4% | 91.6% | 99.2% | 90.3% | 97.5% | 92.5% | 81% | 82.1% | 80% | 75.5% | 78.2% | 61.1% | 61.2% | viability, T/C [8]: 87.3%; viability, T/C [9]: 87.8%; viability, T/C [10]: 85.2%; viability, T/C [13]: 88.4%; viability, T/C [14]: 89.5%; viability, T/C [15]: 83.5%; viability, T/C [16]: 86.3%; viability, T/C [19]: 79.5%; viability, T/C [20]: 80.4%; viability, T/C [21]: 81%; viability, T/C [22]: 76.3%; viability, T/C [25]: 70.9%; viability, T/C [26]: 72.7%; viability, T/C [27]: 67.2%; viability, T/C [28]: 63.9% |
